Data from US20030036564A1, “Control of lyme disease spirochete” (priority 2001, published 2003).

Tested on: Borrelia burgdorferi strain B31
Assay: Antibiotic bait diet fed no-choice for seven days to mice infected with Lyme disease spirochete; ear punch biopsy culture and dark field microscopy
Type: in vivo, laboratory mice (Swiss-Webster)
Details: ear punch biopsy culture, dark field microscopy
Procedure: The diet compositions described in Examples 1-3 were fed separately on a no-choice basis to separate groups of laboratory mice (Swiss-Webster) infected with the Lyme disease spirochete Borrelia burgdorferi. […]. The mice had all been previously infected with B. burgdorferi strain B31 by subcutaneous injection followed by a minimum 21-day incubation period. To confirm that the mice were positive for the spirochete, a modified ear punch biopsy was performed (Sinsky and Piesman, 1989, J. of Clin. Micro. 27:1723-1727, CDC 1997) on each mouse and the biopsy incubated in a modified BSK-H media for 7 days and viewed under dark field microscopy. The prepared diets were fed to individually housed mice on a no-choice basis and water was offered ad libitum. Consumption was recorded each day and additional feed was added. Diet was presented to the mice for seven consecutive days. On the day following the last day feed was offered, mice were anesthetized with Halothane and ear punch biopsy was performed. The biopsies were incubated in modified BSK-H media for seven days at 34±1° C. Dark field microscopy was then performed on an American Optics 1031 microscope with an American Optics dark field 1096 condenser to determine the presence of spirochetes. Cultures were considered positive if spirochete growth occurred within five weeks of inoculation (Wilske and Preac-Mursic, Aspects of Lyme Borreliosis, Springer-Verlag, New York 1993), viewing the cultures at seven-day increments. A slide was considered negative if no spirochetes were found after searching 100 fields at 400× (Ginsberg and Ewing, J. of Med. Entomology, 26: 183-189, 1989).

[1] = Treatment level 1, chloramphenicol 500 μg/g bait
[2] = Treatment level 2, chloramphenicol 1000 μg/g bait
[3] = Treatment level 3, thiamphenicol 1000 μg/g bait

| NUMBER OF MICE TESTING NEGATIVE FOR SPIROCHETE [1] | PERCENTAGE OF MICE TESTING NEGATIVE FOR SPIROCHETE [1] | NUMBER OF MICE TESTING NEGATIVE FOR SPIROCHETE [2] | PERCENTAGE OF MICE TESTING NEGATIVE FOR SPIROCHETE [2] | NUMBER OF MICE TESTING NEGATIVE FOR SPIROCHETE [3] | PERCENTAGE OF MICE TESTING NEGATIVE FOR SPIROCHETE [3] | SMILES |
| --- | --- | --- | --- | --- | --- | --- |
| 10/10 | (100%) | 10/10 | (100%) | – | – | O=C(N[C@H](CO)[C@H](O)c1ccc([N+](=O)[O-])cc1)C(Cl)Cl [CHLORAMPHENICOL, chloramphenicol] |
| – | – | – | – | 10/10 | (100%) | CS(=O)(=O)c1ccc([C@@H](O)[C@@H](CO)NC(=O)C(Cl)Cl)cc1 [THIAMPHENICOL, thiamphenicol] |
